Legend:
[1] = Contact angle of test oil on coated watch-making surfaces (epilame effect); type: physicochemical; details: for contact angle of the gold-plated brass part with the test oil: molecule alone at 10^−3 M, soaking 30 min; for contact angle test oil: molecule alone 10^−3 M in IPA, soaking 5 min
Method: (§1) The epilame effect is conventionally evaluated by measuring the contact angle of the lubricants or of a test fluid (water, test liquids NSSC test) on the surface of the component.
The increased epilame effect permitted by the composition of the invention must be such that this contact angle with a watch oil is greater than 30°, preferably 35°, even more preferably 40°, as such an angle corresponds to very high epilame efficacy (see Renaud 1956, Osowiecki 1962 and Massin 1971).
(§2) Deposit • Place the watch part or parts in a container with an adapted shape, • Cover the part or parts with coating solution (thiol, BP or BP/thiol-PFPE mixture), • Incubate between 5 minutes and 360 minutes, • Eliminate the supernatant—remove the part, • The part is drip dried (centrifugation).
Dehydration—Rinsing • The part which received the deposit is placed in an oven at 120° C. for a period ranging from 6 to 15 h (only for rubies and silicon), • The part is brought back to room temperature then immersed in IPA under ultrasound for 2 minutes, • The part is dried under a stream of hot air. […]
The lipophobic effect was evaluated by measuring the contact angles of a test oil having surface tension of 33 mN/m on different surfaces. […]
In accordance with the reference articles in the watch-making literature (Renaud 1956, Osowiecki 1962 and Massin 1971), an angle of over 40° with a watch lubricant corresponds to very high epilame efficacy. […]
On the basis of the kinetics of molecule I.1, the following parameters were used to test the four other thiol-PF and thiol-PFPE molecules (I.2, I.3, I.4, I.5): • Concentration: 10^−3 M for each compound I.1 to I.5 • Solvent: Isopropyl alcohol (IPA) or Biosane T212 (MMCC) • Soaking Time: 30 minutes • Rinsing time: 2 minutes under ultrasound • Drying: hot air
Evaluation of functional properties was carried out by measuring the contact angles between the surface of the watch-making component and the drop of watch-making oil. It is noticeable that the concentration of 10^−3 M gives results that comply with the desired epilame effect (angle greater than 30°) for all molecules I.1 to I.5.
(§3) The properties of thiol and bisphosphonate molecules in isolation were measured on the surfaces of steel and gold-plated substrates using solutions at 10^−3 M and in isopropanol in accordance with the protocol described in example 3 above, with a soaking time of 5 minutes.

[2] = Contact angle of water drops on coated watch-making surfaces; type: physicochemical; details: molecule alone 10^−3 M in IPA, soaking 5 min
Method: as §1, §2
Dehydration—Rinsing • The part which received the deposit is placed in an oven at 120° C. for a period ranging from 6 to 15 h (only for rubies and silicon), • The part is brought back to room temperature then immersed in IPA under ultrasound for 2 minutes, • The part is dried under a stream of hot air.
Different surfaces were treated with solutions of thiol I.3 and BP II.1 molecules. […]
According to the epilame method described in paragraphs 3 and 5.1, the materials were treated by the mixture of the thiol molecule I.3. with the BP molecule II.1. dissolved in IPA. The contact angles were measured before and after treatment of the surface. […]
as §3

| SMILES | contact angle of the gold-plated brass part with the test oil ([1]; solvent IPA) [°] | contact angle of the gold-plated brass part with the test oil ([1]; solvent MMCC (Biosane T212)) [°] | ranking of contact angles among the molecules [1] | contact angle test oil ([1]; Au (gold-plated brass)) [°] | contact angle test oil ([1]; Steel) [°] | contact angle H2O ([2]; Au (gold-plated brass)) [°] | contact angle H2O ([2]; Steel) [°] |
| --- | --- | --- | --- | --- | --- | --- | --- |
| O=C(NCCS)C(F)(F)C(F)(F)C(F)(F)C(F)(F)C(F)(F)C(F)(F)C(F)(F)F [I.5] | 67.6 ± 3.6 | 49.5 ± 2.5 |  |  |  |  |  |
| O=C(NCCCCCCS)C(F)(OC(F)(F)C(F)(OC(F)(F)C(F)(OC(F)(F)C(F)(OC(F)(F)C(F)(OC(F)(F)C(F)(F)C(F)(F)F)C(F)(F)F)C(F)(F)F)C(F)(F)F)C(F)(F)F)C(F)(F)F (stereo not drawn) [I.3] | 75.7 ± 6 | 63.8 ± 2.8 | highest | 69.0 | 33.5 | 96.4 | 70.2 |

Reference: patent publication US9714469B2, “Composition for increasing the lipophobicity of a watch-making component” (Rolex SA, priority 2010, dated 2017)
